Measurements published in BindingDB's records for doi:10.1021/jm00015a003 (Warner-Lambert, 1995).
pIC50: −log10 of the molar value. Structures can show the parent of a compound that is named as a salt. Numbered stars: 1 amine (or outer) side, 2 acyl side, 3 side chain; on linkers, the order of the positions; unused ones are H or OH. Square brackets hold non-standard residues; d marks the D form. Peptide text beside a SMILES is read from it. * marks the point of attachment. Dip = N[C@H](C(=O)O)C(c1ccccc1)c1ccccc1; CO = O=C([*:1])[*:2]; Tfa = O=C(C(F)(F)F)*

Assay: Inhibition of ET-1 stimulated arachidonic acid release in rabbit renal vascular smooth muscle cells

With `CC[C@H](C)[C@H](NC(=O)[C@H](CC(=O)O)NC(=O)[C@H](CC(C)C)NC(=O)[C@@H](NC(=O)C(F)(F)F)C(c1ccccc1)c1ccccc1)C(=O)N[C@H](C(=O)N[C@@H](Cc1c[nH]c2ccccc12)C(=O)O)[C@@H](C)CC` [(S)-N-((1S,2S)-1-{(1S,2S)-1-[(S)-1-Carboxy-2-(1H-indol-3-yl)-ethylcarbamoyl]-2-methyl-butylcarbamoyl}-2-methyl-butyl)-3-{(S)-2-[(S)-3,3-diphenyl-2-(2,2,2-trifluoro-acetylamino)-propionylamino]-4-methyl-pentanoylamino}-succinamic acid] (Tfa-[Dip]LDIIW-OH) as the compound, how does the pIC50 read?
The pIC50 was 5.77.

With `CC[C@H](C)[C@H](NC(=O)[C@H](CC(=O)O)NC(=O)[C@H](CC(C)C)NC(=O)[C@@H](NC(=O)NC)C(c1ccccc1)c1ccccc1)C(=O)N[C@H](C(=O)N[C@@H](Cc1c[nH]c2ccccc12)C(=O)O)[C@@H](C)CC` [(S)-N-((1S,2S)-1-{(1S,2S)-1-[(S)-1-Carboxy-2-(1H-indol-3-yl)-ethylcarbamoyl]-2-methyl-butylcarbamoyl}-2-methyl-butyl)-3-{(S)-4-methyl-2-[(S)-2-(3-methyl-ureido)-3,3-diphenyl-propionylamino]-pentanoylamino}-succinamic acid] ({NHMe-CO}-[Dip]LDIIW-OH) as the compound, how does the pIC50 read?
Its pIC50 is 6.55.
